Measurements: patent US7732480B2, “Bicyclic compounds as modulators of androgen receptor function and method” (Bristol-Myers Squibb Company, priority 2004, dated 2010)

What was measured:
AR = target: T1, AR (Rattus norvegicus, UniProt P15207); conditions: castrated rats
T1 sequence (P15207 1-902): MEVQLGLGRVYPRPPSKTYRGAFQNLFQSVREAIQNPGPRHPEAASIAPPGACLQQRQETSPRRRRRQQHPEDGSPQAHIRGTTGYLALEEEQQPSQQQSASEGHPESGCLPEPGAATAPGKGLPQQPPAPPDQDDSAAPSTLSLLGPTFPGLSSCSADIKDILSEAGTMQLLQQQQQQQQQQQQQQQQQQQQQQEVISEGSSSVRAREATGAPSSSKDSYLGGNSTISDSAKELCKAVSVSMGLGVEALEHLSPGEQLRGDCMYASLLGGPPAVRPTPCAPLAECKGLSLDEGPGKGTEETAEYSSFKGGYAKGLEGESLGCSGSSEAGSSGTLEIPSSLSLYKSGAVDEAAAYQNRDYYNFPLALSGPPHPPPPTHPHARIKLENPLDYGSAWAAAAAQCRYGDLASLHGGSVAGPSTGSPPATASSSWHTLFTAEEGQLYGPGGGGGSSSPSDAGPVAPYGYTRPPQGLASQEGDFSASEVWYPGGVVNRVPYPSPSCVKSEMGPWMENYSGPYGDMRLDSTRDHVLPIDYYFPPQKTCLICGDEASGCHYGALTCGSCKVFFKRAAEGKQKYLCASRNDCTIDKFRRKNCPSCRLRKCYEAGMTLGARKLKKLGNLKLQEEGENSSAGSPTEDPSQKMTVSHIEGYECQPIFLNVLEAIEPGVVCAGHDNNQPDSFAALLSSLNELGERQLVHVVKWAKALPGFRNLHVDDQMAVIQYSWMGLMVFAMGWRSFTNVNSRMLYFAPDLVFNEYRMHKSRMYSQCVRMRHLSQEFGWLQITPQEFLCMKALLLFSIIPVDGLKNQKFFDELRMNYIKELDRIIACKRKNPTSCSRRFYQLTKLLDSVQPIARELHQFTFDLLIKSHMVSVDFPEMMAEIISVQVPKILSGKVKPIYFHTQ
Source text: The activity of compounds of the present invention as AR agonists was investigated in an immature male rat model, a recognized test of anabolic effects in muscle and sustaining effects in sex organs for a given compound, as described in L. G. Hershberger et al., Proc. Soc. […] Biol. Med., 83, 175 (1953); B. L. Beyler et al, “Methods for evaluating anabolic and catabolic agents in laboratory animals”, J. Amer. Med. Women's Ass., 23, 708 (1968); H. Fukuda et al., “Investigations of the levator ani muscle as an anabolic steroid assay”, Nago Dai. Yak. Ken. Nem. 14, 84 (1966) the disclosures of which are herein incorporated by reference.
The basis of this assay lies in the well-defined action of androgenic agents on the maintenance and growth of muscle tissues and sexual accessory organs in animals and man. […] J. Anat. […] Ital. Biol. Sper. […] II. […] Ital. Biol. Sper. 42, 1600 (1966); A. Boris et al., Steroids 15, 61 (1970). As described above, the effects of androgens on maintenance of male sexual accessory organs, such as the prostate and seminal vesicles, is well described. Castration results in rapid involution and atrophy of the prostate and seminal vesicles. This effect can be reversed by exogenous addition of androgens. […]

glucocorticoid receptor = glucocorticoid receptor (Homo sapiens, UniProt P04150); conditions: concentration ≦10 μM; A549 cells, 10 ng/mL PMA, 7 h
Procedure: The AP-1 assay is a cell-based luciferase reporter assay. A549 cells, which contain endogenous glucocorticoid receptor, were stably transfected with an AP-1 DNA binding site attached to the luciferase gene. Cells are then grown in RPMI+10% fetal calf serum (charcoal-treated)+Penicillin/Streptomycin with 0.5 mg/mL geneticin. Cells are plated the day before the assay at approximately 40000 cells/well. On assay day, the media is removed by aspiration and 20 μL assay buffer (RPMI without phenol red+10% FCS (charcoal-treated)+Pen/Strep) is added to each well. At this point either 20 μL assay buffer (control experiments), the compounds of the present invention (“test compounds”) (dissolved in DMSO and added at varying concentrations) or dexamethasome (100 nM in DMSO, positive control) are added to each well. The plates are then pre-incubated for 15 min at 37° C., followed by stimulation of the cells with 10 ng/mL PMA. The plates are then incubated for 7 h at 37° C. after which 40 μL luciferase substrate reagent is added to each well. Activity is measured by analysis in a luminometer as compared to control experiments treated with buffer or dexamethasome.

wild type AR = conditions: read-out: Kd for [3H]-DHT; MDA 453 cells (wild type AR), Scatchard analysis
Source text: For the saturation analysis, the difference between the total binding and the non-specific binding, was defined as specific binding. […] See e.g. D. Rodbard, Mathematics and statistics of ligand assays: an illustrated guide: In: J. Langon and J. J. Clapp, eds., Ligand Assay, Masson Publishing U.S.A., Inc., New York, pp. 45-99, (1981), the disclosure of which is herein incorporated by reference.
Two replicates were used for each sample.
[formula] After correcting for non-specific binding, IC50 values were determined. […] C2C12 Mouse Myoblast Transactivation Assay

Chain of glucocorticoid receptor (P04150 whole entry): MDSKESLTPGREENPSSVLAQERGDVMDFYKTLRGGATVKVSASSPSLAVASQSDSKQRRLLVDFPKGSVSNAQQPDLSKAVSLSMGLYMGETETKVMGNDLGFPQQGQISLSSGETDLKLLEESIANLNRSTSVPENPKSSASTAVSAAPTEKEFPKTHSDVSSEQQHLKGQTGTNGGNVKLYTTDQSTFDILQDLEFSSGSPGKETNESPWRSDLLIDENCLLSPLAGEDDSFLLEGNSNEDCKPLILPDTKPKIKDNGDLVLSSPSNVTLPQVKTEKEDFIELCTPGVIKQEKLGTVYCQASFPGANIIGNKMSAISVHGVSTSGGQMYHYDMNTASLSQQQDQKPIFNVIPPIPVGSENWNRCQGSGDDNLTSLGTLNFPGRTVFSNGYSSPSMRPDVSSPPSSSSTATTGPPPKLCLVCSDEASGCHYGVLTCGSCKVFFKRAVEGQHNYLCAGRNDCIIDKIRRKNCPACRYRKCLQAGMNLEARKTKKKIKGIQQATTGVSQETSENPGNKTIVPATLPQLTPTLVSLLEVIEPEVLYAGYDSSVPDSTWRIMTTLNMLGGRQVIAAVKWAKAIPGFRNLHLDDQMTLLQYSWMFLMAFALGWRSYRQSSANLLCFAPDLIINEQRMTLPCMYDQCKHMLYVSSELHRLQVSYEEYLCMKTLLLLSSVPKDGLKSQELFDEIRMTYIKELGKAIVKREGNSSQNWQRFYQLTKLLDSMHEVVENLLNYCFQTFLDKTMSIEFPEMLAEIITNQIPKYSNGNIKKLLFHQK

CCC(=O)O[C@H]1CC[C@H]2[C@@H]3CCC4=CC(=O)CC[C@]4(C)[C@H]3CC[C@]12C [TP, testosterone propionate]
EC50 (increase in organ weight) (AR): ~0.03 mg
potency relative to free T (AR; organ weight increase): 10-30 fold

C[C@@H]1C[C@H]2[C@@H]3CCC4=CC(=O)C=C[C@]4(C)[C@@]3(F)[C@@H](O)C[C@]2(C)[C@@]1(O)C(=O)CO [dexamethasone]
% inhibition of the AP-1 reporter system vs buffer control with PMA (glucocorticoid receptor): 65%

tritiated dihydrotestosterone [[^3H]-DHT]
Kd (wild type AR): 0.7 nM
